Measurements from patent US12678438B2, “Treatment of cancer with CDK inhibitors” (THE TRUSTEES OF THE UNIVERSITY OF PENNSYLVANIA, priority 2019, dated 2026).

Tests used:
AR-dependent PCa lines = test: Cell viability assay (Cell-Titer GLO), GI50; type: cell-based; conditions: Homo sapiens; five AR-dependent PCa lines, 96 h incubation
Procedure: (§1) Cell viability assays were performed by seeding the cells in 96-well plates at 2500-10000 cells/well (optimum density for growth) in a total volume of 100 μL complete media. Serially diluted compounds/drugs in 100 μL media were added to the cells 24 h post seeding. Following 96 h incubation, cell viability was assessed by Cell-Titer GLO (Promega, PR G7571). The measurements were normalized and regression curves were fitted to calculate GI50 using GraphPad Prism software.

AR-negative cells = test: Cell viability assay (Cell-Titer GLO), GI50; type: cell-based; conditions: Homo sapiens; three AR-negative cells, 96 h incubation
Procedure: as §1

[1] = tested on: AR-negative PC3 and DU145 cells; test: Annexin V-FITC apoptosis analysis; type: cell-based, human
Procedure: (§2) Apoptosis induction was quantified using the Annexin-V and FITC Apoptosis Kit, as per manufacturer's instructions. Briefly LNCaP, VCaP, DU145 and PC3 cells were plated at a density of 5×10^5 cells per well in a 6-well culture plate. After subsequent treatments, the cells were harvested following incubation with a staining solution containing 10 μL propidium iodide and 5 μL Annexin for 10 min and analyzed by flow cytometry (BD FACS Aria II, BD Biosciences, San Jose).

[2] = tested on: AR-positive LNCaP and VCaP cells; test: Annexin V-FITC apoptosis analysis; type: cell-based, human
Procedure: as §2

p-MED1 (p-T1457 MED1) = test: Immunoblot of p-MED1 in AR negative RWPE and DU145 cells; type: cell-based, human; conditions: RWPE and DU145, highest tested concentration
Procedure: (§3) Cell lysates were prepared with RIPA buffer (Boston Bioproducts, BP-115DG)-10 mM Tris-HCl pH 7.5, 1 mM EDTA, 400 mM NaCl, 0.5% NP-40 and 1 mM DTT, supplemented with protease inhibitor cocktail (Pierce, A32965) and phosphatase inhibitor (Thermo, 1861280). For immunoblotting 200 μg total protein extract was boiled in sample buffer and 15-25 μg aliquots were separated by SDS-PAGE and transferred onto Polyvinylidene Difluoride membrane (GE Healthcare, IPVH00010). The membrane was incubated for one hour in blocking buffer [Tris-buffered saline, 0.1% Tween (TBS-T), 5% nonfat dry milk followed by overnight incubation on a rocker at 4° C. with the primary antibody. Following a wash with TBS-T, the blot was incubated with horseradish peroxidase-conjugated secondary antibody for 2 hrs on a rocker at room temperature. The blots were washed again and signals were visualized using enhanced chemiluminescence system as per manufacturer's protocol (GE Healthcare) or Kwik Quant Imager (Kindle Biosciences). […]

[3] = molecular target: CAK complex-CDK7/CyclinH/MAT1 (Homo sapiens, UniProt P50613); test: In vitro kinase assay, CAK complex with GST-MED1 protein, immunoblot; type: biochemical; conditions: 60 min at 30° C.
Procedure: The kinase assay was performed by preparing the master mixture of 3 ul (5×) kinase assay buffer, 0.5 ul of 500 uM ATP (BPS Bioscience, 79603), 1.25 ul (1 ug/ul) Human Recombinant GST-MED1 protein (Lifespan Biosciences, LS-G59680-25), and 7.75 ul of kinase assay grade water per reaction for the desired number of reactions. […] Additionally, kinase assay reaction mixtures containing no ATP and CDK7 were used as negative controls. Next, CAK complex-CDK7/CyclinH/MAT1 enzyme (BPS Bioscience) was thawed and diluted to (10 ng/111) in 1× kinase assay buffer. The reactions were initiated by adding 10 ul of diluted CAK complex to the designated wells and incubated at 30° C. for 60 min. After the incubation the reaction was stopped, and the mixture were analyzed through western blotting.

CDK7 = CDK7 (Homo sapiens, UniProt P50613); test: Luminescence-based CDK7 kinase activity on MED1 peptide; type: biochemical; conditions: varying concentration of THZ1
Procedure: For luminescence-based CDK7 kinase activity analysis wild type MED1-peptide “[sequence]” and mutant MED1-peptide “[sequence]” (GenScript, U2051EC280_1, U2051EC280_3) were used. Following the above protocol, briefly after 60 min incubation, post addition of CAK complex, ADP-GLOW reagent (Promega, V6930) was thawed and 25 ul of the reagent was added to each well, the plate was covered with aluminum foil and incubated at room temperature (RT) for 45 min. After the incubation Kinase-Detection reagent (BPS Bioscience, 79603) was thawed and 50 ul of the reagent was added to each well and incubated for another 45 min at RT under dark conditions. After 45 min incubation luminescence was measured using the microplate reader (Note: in luminescence-based kinase assay, CAK-complex+CTD-peptide (BPS Bioscience)+ATP was used as a positive control, were as CAK complex+Human MED1 protein without ATP was used as a negative control to subtract the background readings).

AR p-S515 = test: Immunoblot of AR p-S515; type: cell-based, human; conditions: LNCaP, 200 nM, 12 h
Procedure: as §3

[4] = tested on: AR target proteins (ERG, MYC, PSA); test: Immunoblot of AR target proteins; type: cell-based, human
Procedure: as §3

[5] = tested on: AR-negative DU145 xenografts; test: DU145 mouse xenograft; type: in vivo; conditions: 10 mg/kg b.i.d., four weeks
Procedure: In vivo efficacy studies were performed in accordance with protocols approved by the Institutional Animal Care and Use Committee (IACUC) at the University of Pennsylvania and in compliance with all regulatory standards. Four to five-week-old male NOD SCID gamma mice (Jackson Lab, 005557) were procured from Jackson Laboratory. In the VCaP experiment, 2×10^6 VCaP prostate cancer cells suspended in 80 μL of RPMI-1640 with 50% Matrigel (BD Biosciences) were implanted subcutaneously into the dorsal flank of the mice. The animals were castrated when the tumor volumes reached approximately 150 mm^3. […] Tumor growth was recorded using digital calipers and tumor volumes were estimated using the formula (π/6) (L×W^2), where L=length and W=width of tumor. Body weight during the study was also monitored. At the end of the treatment regimen the mice were sacrificed and were extracted for further analysis.
Xenograft tumor pieces were fixed in 4% of formaldehyde for 48 h and paraffin embedded. Paraffin embedded sections from the tumors of treated and untreated mice were deparaffinized, rehydrated and subjected to epitope retrieval stained with a phospho-MED1 antibody (1:4000/1:2000), anti-PSA antibody (1:1000), anti-Ki67 (1:500), or anti-cleaved caspase3 antibody (1:1000) followed by peroxidase-based detection and counterstaining with hematoxylin using the Leica Bond Rxm system. Photographs were taken on a Leica DMI6000B inverted light and fluorescent microscope with a 20× objective. images were assessed and quantified in ImageJ.

Sequence of CAK complex-CDK7/CyclinH/MAT1 (P50613 whole entry): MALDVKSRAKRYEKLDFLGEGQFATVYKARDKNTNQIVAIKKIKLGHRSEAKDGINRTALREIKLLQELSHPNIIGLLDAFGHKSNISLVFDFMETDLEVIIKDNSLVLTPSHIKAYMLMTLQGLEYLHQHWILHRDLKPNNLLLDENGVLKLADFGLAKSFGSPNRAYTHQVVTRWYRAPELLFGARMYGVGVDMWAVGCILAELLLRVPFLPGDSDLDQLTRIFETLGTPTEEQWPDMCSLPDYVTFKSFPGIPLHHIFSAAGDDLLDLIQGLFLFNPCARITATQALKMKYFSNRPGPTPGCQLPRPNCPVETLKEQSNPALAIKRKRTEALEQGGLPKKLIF
Sequence of CAK complex-CDK7/CyclinH/MAT1 (P51946 whole entry partner): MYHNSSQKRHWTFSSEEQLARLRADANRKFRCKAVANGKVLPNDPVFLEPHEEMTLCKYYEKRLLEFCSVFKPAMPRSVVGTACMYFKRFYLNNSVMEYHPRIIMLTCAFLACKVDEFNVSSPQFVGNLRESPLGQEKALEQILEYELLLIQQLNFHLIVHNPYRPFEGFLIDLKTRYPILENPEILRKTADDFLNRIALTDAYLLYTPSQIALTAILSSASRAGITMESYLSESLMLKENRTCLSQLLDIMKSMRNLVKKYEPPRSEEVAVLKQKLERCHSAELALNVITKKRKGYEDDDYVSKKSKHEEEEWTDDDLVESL
Sequence of CAK complex-CDK7/CyclinH/MAT1 (P51948 whole entry partner): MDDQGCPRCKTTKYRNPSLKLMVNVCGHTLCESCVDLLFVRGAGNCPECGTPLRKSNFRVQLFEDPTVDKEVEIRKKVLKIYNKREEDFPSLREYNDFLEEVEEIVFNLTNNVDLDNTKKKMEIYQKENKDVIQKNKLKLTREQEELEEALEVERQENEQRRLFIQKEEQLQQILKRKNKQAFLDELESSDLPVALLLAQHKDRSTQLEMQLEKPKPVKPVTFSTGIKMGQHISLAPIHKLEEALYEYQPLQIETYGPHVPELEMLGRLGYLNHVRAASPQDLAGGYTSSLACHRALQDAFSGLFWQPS
Sequence of CDK7 (P50613 whole entry): as the sequence (P50613 whole entry) above
Sequence of CDK7 (P51946 whole entry partner): as the sequence (P51946 whole entry partner) above
Sequence of CDK7 (P51948 whole entry partner): as the sequence (P51948 whole entry partner) above

For `CN(C)C/C=C/C(=O)Nc1ccc(C(=O)Nc2cccc(Nc3ncc(Cl)c(-c4c[nH]c5ccccc45)n3)c2)cc1` [THZ1], the GI50 (AR-dependent PCa lines) was 50 to 170 nM, the GI50 (AR-negative cells) was 400 to 600 nM and the apoptosis [1] was “not observed”. The apoptosis [2] was “induced robust apoptosis”, the “p-MED1 or pS5-PolII levels” value (p-MED1 (p-T1457 MED1)) was “no such decrease in p-MED1 or pS5-PolII levels” and the “Threonine phosphorylation of GST-MED1 (aa 1391-1490) at T1457” value [3] was “completely inhibited”. The “CDK7-mediated phosphorylation of the T1457 wildtype peptide” value (CDK7) was “inhibited by THZ1 treatment in a dose-dependent manner”, the “AR p-S515 levels” value (AR p-S515) was “did not reduce AR p-S515 levels” and the “AR target protein expression” value ([4]; LNCaP and VCaP) was “decreased AR target protein expression”. The ERG levels ([4]; VCaP, dose and time-dependent) was “reduction in ERG levels”, the “tumor Ki-67” value ([5]; vs vehicle) was “lower Ki-67” and the tumor apoptosis ([5]; vs vehicle) was “increased apoptosis”. The “tumor p-MED1 levels” value ([5]; vs vehicle) was “reduced p-MED1 levels” and the tumor growth ([5]; castrated mice) was “tumor growth inhibition”.
